Measured values taken from the OPERA property sets (Mansouri et al. 2018).
Values after ≈ are worked out from the molar mass of the structure shown.

O=C(S)CCCCC(=O)S
solubility (26 °C): 18.5 mM (≈ 3300 µg/mL)

O=C(c1ccco1)N(O)c1ccccc1
solubility: 0.64 mM (≈ 130 µg/mL)

CC=CCC1(C)C(=O)NC(=O)N(C)C1=O (stereo not drawn)
solubility (20 °C): 28.5 mM (≈ 6000 µg/mL)

O=C1Cc2c(ccc3ccccc23)O1
solubility: 1.96 mM (≈ 361 µg/mL)

CSc1ncnc2nccnc12
solubility (20 °C): 4.32 mM (≈ 769 µg/mL)

CC12CCC(C(CO)C1=O)C2(C)C (stereo not drawn)
solubility: 610 mM (≈ 111000 µg/mL)

CCc1cccc(C)n1
solubility (30 °C): 150 mM (≈ 18200 µg/mL)

CC(=O)Nc1ccc(Cl)cc1C
solubility (20 °C): 4.9 mM (≈ 900 µg/mL)

CCC(C)(C)C1CCC(=NO)C(=NO)C1 (stereo not drawn)
solubility (25 °C): 0.108 mM (≈ 23 µg/mL)

O=C(Cc1ccccc1)N[C@@H](CSSC[C@H](NC(=O)Cc1ccccc1)C(=O)O)C(=O)O
solubility: 14.7 mM (≈ 7000 µg/mL)

CCN(CC)CCSCCN(CC)CC
solubility: 4.3 mM (≈ 1000 µg/mL)

Cc1nnc(N)nc1C
solubility (25 °C): 80.6 mM (≈ 10000 µg/mL)

CC(C)C1OC(=O)c2ccccc21 (stereo not drawn)
solubility (25 °C): 5.54 mM (≈ 976 µg/mL)

CCOC(=O)CO[N+](=O)[O-]
solubility (30 °C): 19.4 mM (≈ 2900 µg/mL)

COc1ncc2nccnc2n1
solubility (20 °C): 77.1 mM (≈ 12500 µg/mL)

CCCOCCC(=O)OCCC
solubility (25 °C): 20.7 mM (≈ 3600 µg/mL)

NC1=NC(C(=O)O)CCS1 (stereo not drawn)
solubility (20 °C): 187 mM (≈ 30000 µg/mL)

CCC1(CC)OC(=O)c2ccccc21
solubility (25 °C): 1.37 mM (≈ 260 µg/mL)

CC(C)CCCCCO
solubility (25 °C): 4.97 mM (≈ 647 µg/mL)

COCCOC(=O)CCCCC(=O)OCCOC
solubility: 54.1 mM (≈ 14200 µg/mL)

Clc1cnc2ncncc2n1
solubility (20 °C): 75 mM (≈ 12500 µg/mL)

Cc1ccc(/N=N/c2cc(C)ccc2N)cc1
solubility (25 °C): 0.125 mM (≈ 28.2 µg/mL)

COc1nsc(N)n1
solubility (20 °C): 57.2 mM (≈ 7500 µg/mL)

CCCCCCC(C/C=C\CCCCCCCC(=O)O)OS(=O)(=O)O (stereo not drawn)
solubility (25 °C): 264 mM (≈ 100000 µg/mL)

NC(=O)OC(CCl)CCl
solubility (25 °C): 43.6 mM (≈ 7500 µg/mL)

CC(=O)/C(=N/O)c1ccccc1
solubility (20 °C): 4.29 mM (≈ 700 µg/mL)

O=C(O)c1ccc2ncccc2c1
solubility (25 °C): 900 mM (≈ 156000 µg/mL)

CS(=O)(=O)NS(C)(=O)=O
solubility (30 °C): 1100 mM (≈ 190000 µg/mL)

COc1c(C(=O)O)oc2ccccc12
solubility (20 °C): 1.3 mM (≈ 250 µg/mL)

NC(N)=Nc1nc2ccccc2s1
solubility (20 °C): 3.62 mM (≈ 696 µg/mL)

CCCCCCCCCC(C(=O)O)C(=O)O
solubility (25 °C): 0.499 mM (≈ 115 µg/mL)

N#CCCNC(Cc1ccccc1)C(=O)O (racemic)
solubility (26 °C): 32.1 mM (≈ 7000 µg/mL)

CCOc1ccc(NC(C)=O)c2cccnc12
solubility (20 °C): 30.4 mM (≈ 7000 µg/mL)

O=C(O)C=C(Br)Br
solubility (20 °C): 146 mM (≈ 33500 µg/mL)

NC(=O)C=Cc1ccccc1[N+](=O)[O-]
solubility: 52 mM (≈ 10000 µg/mL)

CCS(=O)(=O)CCSP(=S)(OC)OC
solubility: 2.87 mM (≈ 800 µg/mL)

CCCCOC(=O)CCOC
solubility: 61.2 mM (≈ 9800 µg/mL)

Oc1cnn(-c2ccccc2)c1
solubility (25 °C): 10.9 mM (≈ 1750 µg/mL)

COc1c(C(=O)O)cc(C(=O)O)cc1C(=O)O
solubility (20 °C): 29.1 mM (≈ 7000 µg/mL)

CCCCCCCCCCOC(=O)c1cccnc1
solubility (25 °C): 0.646 mM (≈ 170 µg/mL)

CCOCCOC(=O)CCCCCCCCC(=O)OCCOCC
solubility: 0.635 mM (≈ 220 µg/mL)

O=C(O)c1ccc(Br)c([N+](=O)[O-])c1
solubility (25 °C): 1.08 mM (≈ 265 µg/mL)

Nc1ccc(CC(=O)c2ccccc2)cc1
solubility: 15.7 mM (≈ 3310 µg/mL)

Nc1ncc2nccnc2n1
solubility (20 °C): 5.04 mM (≈ 741 µg/mL)

CCCC(O)(CCC)C(O)c1ccccc1 (stereo not drawn)
solubility (20 °C): 2.25 mM (≈ 500 µg/mL)

CNC(CC(C)C)C(=O)O (stereo in doubt)
solubility (25 °C): 306 mM (≈ 44400 µg/mL)

O=[N+]([O-])CCl
solubility: 524 mM (≈ 50000 µg/mL)

CC1(c2ccccc2)C(=O)NC(=O)NC1=O
solubility (20 °C): 3.48 mM (≈ 760 µg/mL)

O=C(O)COc1cccc(Cl)c1
solubility (20 °C): 6.38 mM (≈ 1190 µg/mL)

CC(=O)C(=O)Nc1ccccc1
solubility: 42.9 mM (≈ 7000 µg/mL)

O=C1CCCCCCCCCN1
solubility (22 °C): 13 mM (≈ 2200 µg/mL)

O=c1[nH]c(=O)c2cc([N+](=O)[O-])cc([N+](=O)[O-])c2[nH]1
solubility (23 °C): 0.623 mM (≈ 157 µg/mL)

Cc1ccccc1N(C)C(N)=O
solubility (25 °C): 395 mM (≈ 64900 µg/mL)

CCOP(=O)(OCC)OCC(C)C
solubility (25 °C): 66.6 mM (≈ 14000 µg/mL)

CCC(C)(C)NC(N)=O
solubility (27 °C): 96.8 mM (≈ 12600 µg/mL)

CC1CCC(=NO)C(=NO)C1 (stereo not drawn)
solubility (25 °C): 21.8 mM (≈ 3400 µg/mL)

O=C(O)C(=O)C(c1ccccc1)c1ccccc1
solubility: 4.62 mM (≈ 1110 µg/mL)

c1ncc2n[nH]nc2n1
solubility (20 °C): 586 mM (≈ 71000 µg/mL)

CCC/C(=C\C(=O)O)C(=O)O
solubility (25 °C): 70.2 mM (≈ 11100 µg/mL)

Nc1c(Br)cc(Br)c(S(=O)(=O)O)c1Br
solubility (22 °C): 324 mM (≈ 133000 µg/mL)

COC(C)C(C)Cl (stereo not drawn)
solubility (30 °C): 10 mM (≈ 1230 µg/mL)

CCC(C#N)(CC)C(=O)NC(N)=O
solubility (20 °C): 27.3 mM (≈ 5000 µg/mL)

CC(O)(CCl)CCl
solubility (20 °C): 657 mM (≈ 94000 µg/mL)

O=C(O)CCCC(C(=O)O)(c1ccccc1)c1ccccc1
solubility (20 °C): 0.67 mM (≈ 200 µg/mL)

O=c1cccc2[nH]ccnc1-2
solubility (20 °C): 45 mM (≈ 6580 µg/mL)

O=C(O)Cc1cc(O)ccc1O
solubility (25 °C): 5050 mM (≈ 850000 µg/mL)

O=C(O)CCCCCCCCCCO
solubility (20 °C): 1.98 mM (≈ 400 µg/mL)

Oc1ccc(C2CCCCC2)c(O)c1
solubility (25 °C): 2.65 mM (≈ 510 µg/mL)

O=C(NCCc1c[nH]cn1)c1ccccc1
solubility: 232 mM (≈ 50000 µg/mL)

CC(C)C[C@H](NC=O)C(=O)O (racemic)
solubility (25 °C): 185 mM (≈ 29500 µg/mL)

O=C(O)/C=C/CBr
solubility: 182 mM (≈ 30000 µg/mL)

O=[N+]([O-])c1cccc(P(=O)(O)O)c1
solubility (22 °C): 4830 mM (≈ 980000 µg/mL)

CN(CCCCC(=O)O)S(=O)(=O)c1ccccc1
solubility (20 °C): 27.6 mM (≈ 7500 µg/mL)

CC(C)SS(=O)C(C)C (stereo not drawn)
solubility: 150 mM (≈ 25000 µg/mL)

NNC(=O)c1cccnc1
solubility (20 °C): 729 mM (≈ 100000 µg/mL)

Nc1cc([N+](=O)[O-])ccc1Br
solubility (25 °C): 0.277 mM (≈ 60 µg/mL)

CCCC(=O)NCCNC(=O)CCC
solubility (25 °C): 239 mM (≈ 47800 µg/mL)

CCn1c(=O)c2c(ncn2C)n(C)c1=O
solubility (30 °C): 191 mM (≈ 39800 µg/mL)

OCc1cccc(O)c1
solubility (20 °C): 540 mM (≈ 67000 µg/mL)

COC(=O)c1cc(O)c(OC)c(O)c1
solubility (20 °C): 25.2 mM (≈ 5000 µg/mL)

O=C(O)c1ccc(C(=O)O)c(Br)c1
solubility (24 °C): 7.35 mM (≈ 1800 µg/mL)

O=C1CN(CO)C(=O)CN1CO
solubility: 383 mM (≈ 66700 µg/mL)

CC(C)(S(C)(=O)=O)S(C)(=O)=O
solubility: 35.4 mM (≈ 7100 µg/mL)
